# Test results taken from ChEMBL document CHEMBL4002566, “S-substituted 3,5-dinitrophenyl 1,3,4-oxadiazole-2-thiols and tetrazole-5-thiols as highly efficient antitubercular agents” (Eur J Med Chem, 2017).
# pIC50: −log10 of the molar value.
# Tests used:
# Mycobacterium avium [1] = experiment: Antimycobacterial activity against Mycobacterium avium CNCTC My 330/88 after 21 days by micromethod; assay type: functional; conditions: CNCTC My 330/88, 504 h
# [2] = test system: Mycobacterium tuberculosis; experiment: Antimycobacterial activity against Mycobacterium tuberculosis CNCTC My 331/88 after 14 days by micromethod; assay type: functional; conditions: CNCTC My 331/88, 336 h
# Mycobacterium avium [3] = experiment: Antimycobacterial activity against Mycobacterium avium CNCTC My 330/88 after 14 days by micromethod; assay type: functional; conditions: CNCTC My 330/88, 336 h
# Mycobacterium kansasii [4] = experiment: Antimycobacterial activity against Mycobacterium kansasii CNCTC My 235/80 after 14 days by micromethod; assay type: functional; conditions: CNCTC My 235/80, 336 h
# Mycobacterium kansasii [5] = experiment: Antimycobacterial activity against Mycobacterium kansasii 6509/96 clinical isolate after 14 days by micromethod; assay type: functional; conditions: 6509/96, 336 h
# [6] = Cytotoxicity against human HuH7 cells assessed as cell viability at 30 uM after 48 hrs by MTS assay relative to control; assay type: cell-based, Huh-7; conditions: read-out: Activity
# Huh-7 = experiment: Cytotoxicity against human HuH7 cells assessed as cell viability after 48 hrs by MTS assay; assay type: cell-based; conditions: Huh-7, 48 h
# A-431 = experiment: Cytotoxicity against human A431 cells assessed as cell viability after 48 hrs by MTS assay; assay type: cell-based; conditions: A-431, 48 h
# [7] = Cytotoxicity against human A431 cells assessed as cell viability at 30 uM after 48 hrs by MTS assay relative to control; assay type: cell-based, A-431; conditions: read-out: Activity
# MDCK = experiment: Cytotoxicity against MDCK cells assessed as cell viability after 48 hrs by MTS assay; assay type: cell-based; conditions: Canis lupus familiaris
# [8] = Cytotoxicity against MDCK cells assessed as cell viability at 30 uM after 48 hrs by MTS assay relative to control; assay type: cell-based, Canis lupus familiaris; conditions: dog, read-out: Activity
# HepG2 = experiment: Cytotoxicity against human HepG2 cells assessed as cell viability after 48 hrs by MTS assay; assay type: cell-based; conditions: HepG2, 48 h
# [9] = Cytotoxicity against human HepG2 cells assessed as cell viability at 30 uM after 48 hrs by MTS assay relative to control; assay type: cell-based; conditions: read-out: Activity
# [10] = Selectivity index, ratio of IC50 for human HepG2 cells to MIC for Mycobacterium tuberculosis; assay type: toxicity; conditions: read-out: Selectivity Index
# [11] = test system: Mycobacterium tuberculosis; experiment: Antimycobacterial activity against Mycobacterium tuberculosis CNCTC My 331/88 after 21 days by micromethod; assay type: functional; conditions: CNCTC My 331/88, 504 h
# Mycobacterium kansasii [12] = experiment: Antimycobacterial activity against Mycobacterium kansasii CNCTC My 235/80 after 21 days by micromethod; assay type: functional; conditions: CNCTC My 235/80, 504 h
# Mycobacterium kansasii [13] = experiment: Antimycobacterial activity against Mycobacterium kansasii CNCTC My 235/80 after 7 days by micromethod; assay type: functional; conditions: CNCTC My 235/80, 168 h
# Mycobacterium kansasii [14] = experiment: Antimycobacterial activity against Mycobacterium kansasii 6509/96 clinical isolate after 21 days by micromethod; assay type: functional; conditions: 6509/96, 504 h
# Mycobacterium kansasii [15] = experiment: Antimycobacterial activity against Mycobacterium kansasii 6509/96 clinical isolate after 7 days by micromethod; assay type: functional; conditions: 6509/96, 168 h
# Candida albicans [16] = experiment: Antifungal activity against Candida albicans ATCC 44859 after 24 hrs by broth microdilution method; assay type: functional; conditions: ATCC 44859, 24 h
# Candida albicans [17] = experiment: Antifungal activity against Candida albicans ATCC 44859 after 48 hrs by broth microdilution method; assay type: functional; conditions: ATCC 44859, 48 h
# Candida tropicalis [18] = experiment: Antifungal activity against Candida tropicalis 156 after 24 hrs by broth microdilution method; assay type: functional; conditions: Candida tropicalis, 156, 24 h
# Candida tropicalis [19] = experiment: Antifungal activity against Candida tropicalis 156 after 48 hrs by broth microdilution method; assay type: functional; conditions: Candida tropicalis, 156, 48 h
# Pichia kudriavzevii [20] = experiment: Antifungal activity against Candida krusei E28 after 24 hrs by broth microdilution method; assay type: functional; conditions: E28, 24 h
# Pichia kudriavzevii [21] = experiment: Antifungal activity against Candida krusei E28 after 48 hrs by broth microdilution method; assay type: functional; conditions: E28, 48 h
# Nakaseomyces glabratus [22] = experiment: Antifungal activity against Candida glabrata 20/I after 24 hrs by broth microdilution method; assay type: functional
# Nakaseomyces glabratus [23] = experiment: Antifungal activity against Candida glabrata 20/I after 48 hrs by broth microdilution method; assay type: functional
# Trichosporon asahii [24] = experiment: Antifungal activity against Trichosporon asahii 1188 after 24 hrs by broth microdilution method; assay type: functional; conditions: Trichosporon asahii, 1188, 24 h
# Trichosporon asahii [25] = experiment: Antifungal activity against Trichosporon asahii 1188 after 48 hrs by broth microdilution method; assay type: functional; conditions: Trichosporon asahii, 1188, 48 h
# Aspergillus fumigatus [26] = experiment: Antifungal activity against Aspergillus fumigatus 231 after 24 hrs by broth microdilution method; assay type: functional; conditions: Aspergillus fumigatus, 231, 24 h
# Aspergillus fumigatus [27] = experiment: Antifungal activity against Aspergillus fumigatus 231 after 48 hrs by broth microdilution method; assay type: functional; conditions: Aspergillus fumigatus, 231, 48 h
# Lichtheimia corymbifera [28] = experiment: Antifungal activity against Absidia corymbifera 272 after 24 hrs by broth microdilution method; assay type: functional; conditions: Lichtheimia corymbifera, 272, 24 h
# Lichtheimia corymbifera [29] = experiment: Antifungal activity against Absidia corymbifera 272 after 48 hrs by broth microdilution method; assay type: functional; conditions: Lichtheimia corymbifera, 272, 48 h
# [30] = test system: Trichophyton mentagrophytes; experiment: Antifungal activity against Trichophyton mentagrophytes 445 after 72 hrs by broth microdilution method; assay type: functional; conditions: Trichophyton mentagrophytes, 445, 72 h
# [31] = test system: Trichophyton mentagrophytes; experiment: Antifungal activity against Trichophyton mentagrophytes 445 after 120 hrs by broth microdilution method; assay type: functional; conditions: Trichophyton mentagrophytes, 445, 120 h
# Staphylococcus aureus [32] = experiment: Antibacterial activity against Staphylococcus aureus ATCC 6538 after 24 hrs by broth microdilution method; assay type: functional; conditions: ATCC 6538, 24 h
# Staphylococcus aureus [33] = experiment: Antibacterial activity against Staphylococcus aureus ATCC 6538 after 48 hrs by broth microdilution method; assay type: functional; conditions: ATCC 6538, 48 h
# Staphylococcus aureus [34] = experiment: Antibacterial activity against methicillin-resistant Staphylococcus aureus HK5996/08 after 24 hrs by broth microdilution method; assay type: functional; conditions: HK5996/08, 24 h
# Staphylococcus aureus [35] = experiment: Antibacterial activity against methicillin-resistant Staphylococcus aureus HK5996/08 after 48 hrs by broth microdilution method; assay type: functional; conditions: HK5996/08, 48 h
# [36] = test system: Staphylococcus epidermidis; experiment: Antibacterial activity against Staphylococcus epidermidis HK6996/08 after 24 hrs by broth microdilution method; assay type: functional; conditions: HK6996/08, 24 h
# [37] = test system: Staphylococcus epidermidis; experiment: Antibacterial activity against Staphylococcus epidermidis HK6996/08 after 48 hrs by broth microdilution method; assay type: functional; conditions: HK6996/08, 48 h
# Enterococcus sp. [38] = experiment: Antibacterial activity against Enterococcus sp. HK14365/08 after 24 hrs by broth microdilution method; assay type: functional; conditions: HK14365/08, 24 h
# Enterococcus sp. [39] = experiment: Antibacterial activity against Enterococcus sp. HK14365/08 after 48 hrs by broth microdilution method; assay type: functional; conditions: HK14365/08, 48 h
# Escherichia coli [40] = experiment: Antibacterial activity against Escherichia coli ATCC 8739 after 24 hrs by broth microdilution method; assay type: functional; conditions: ATCC 8739, 24 h
# Escherichia coli [41] = experiment: Antibacterial activity against Escherichia coli ATCC 8739 after 48 hrs by broth microdilution method; assay type: functional; conditions: ATCC 8739, 48 h
# Klebsiella pneumoniae [42] = experiment: Antibacterial activity against Klebsiella pneumoniae HK11750/08 after 24 hrs by broth microdilution method; assay type: functional; conditions: HK11750/08, 24 h
# Klebsiella pneumoniae [43] = experiment: Antibacterial activity against Klebsiella pneumoniae HK11750/08 after 48 hrs by broth microdilution method; assay type: functional; conditions: HK11750/08, 48 h
# Klebsiella pneumoniae [44] = experiment: Antibacterial activity against extended spectrum beta-lactamase producing Klebsiella pneumoniae HK14368/08 after 24 hrs by broth microdilution method; assay type: functional; conditions: HK14368/08, 24 h
# Klebsiella pneumoniae [45] = experiment: Antibacterial activity against extended spectrum beta-lactamase producing Klebsiella pneumoniae HK14368/08 after 48 hrs by broth microdilution method; assay type: functional; conditions: HK14368/08, 48 h
# Pseudomonas aeruginosa [46] = experiment: Antibacterial activity against Pseudomonas aeruginosa ATCC 9027 after 24 hrs by broth microdilution method; assay type: functional; conditions: ATCC 9027, 24 h
# Pseudomonas aeruginosa [47] = experiment: Antibacterial activity against Pseudomonas aeruginosa ATCC 9027 after 48 hrs by broth microdilution method; assay type: functional; conditions: ATCC 9027, 48 h
smiles,measurement,setting,value
O=[N+]([O-])c1cc(-c2nnc(SCc3cccc(Cl)c3)o2)cc([N+](=O)[O-])c1,MIC,Mycobacterium avium [1],8 µM
same,MIC,[2],0.03 µM
same,MIC,Mycobacterium avium [3],4 µM
same,MIC,Mycobacterium kansasii [4],0.06 µM
same,MIC,Mycobacterium kansasii [5],0.06 µM
same,"viability at 48 h, 30 µM",[6],158%
same,pIC50,Huh-7,< 4.52
same,pIC50,A-431,< 4.52
same,"viability at 48 h, 30 µM",[7],105%
same,pIC50,MDCK,< 4.52
same,"viability at 48 h, 30 µM",[8],105%
same,pIC50,HepG2,< 4.52
same,"viability at 48 h, 30 µM",[9],129%
same,selectivity ratio,[10],> 1000
same,MIC,[11],0.06 µM
same,MIC,Mycobacterium kansasii [12],0.06 µM
same,MIC,Mycobacterium kansasii [13],0.06 µM
same,MIC,Mycobacterium kansasii [14],0.06 µM
same,MIC,Mycobacterium kansasii [15],0.03 µM
O=[N+]([O-])c1cc(-n2nnnc2SCc2ccc(Cl)c(Cl)c2)cc([N+](=O)[O-])c1,MIC,Mycobacterium avium [1],32 µM
same,MIC,[2],0.25 µM
same,MIC,Mycobacterium avium [3],8 µM
same,MIC,Mycobacterium kansasii [4],1 µM
same,MIC,Mycobacterium kansasii [5],0.5 µM
same,MIC,Candida albicans [16],> 500 µM
same,MIC,Candida albicans [17],> 500 µM
same,MIC,Candida tropicalis [18],> 500 µM
same,MIC,Candida tropicalis [19],> 500 µM
same,MIC,Pichia kudriavzevii [20],> 500 µM
same,MIC,Pichia kudriavzevii [21],> 500 µM
same,MIC,Nakaseomyces glabratus [22],> 500 µM
same,MIC,Nakaseomyces glabratus [23],> 500 µM
same,MIC,Trichosporon asahii [24],> 500 µM
same,MIC,Trichosporon asahii [25],> 500 µM
same,MIC,Aspergillus fumigatus [26],> 500 µM
same,MIC,Aspergillus fumigatus [27],> 500 µM
same,MIC,Lichtheimia corymbifera [28],> 500 µM
same,MIC,Lichtheimia corymbifera [29],> 500 µM
same,MIC,[30],> 500 µM
same,MIC,[31],> 500 µM
same,MIC,Staphylococcus aureus [32],62 µM
same,MIC,Staphylococcus aureus [33],62 µM
same,MIC,Staphylococcus aureus [34],125 µM
same,MIC,Staphylococcus aureus [35],125 µM
same,MIC,[36],250 µM
same,MIC,[37],250 µM
same,MIC,Enterococcus sp. [38],> 500 µM
same,MIC,Enterococcus sp. [39],> 500 µM
same,MIC,Escherichia coli [40],> 500 µM
same,MIC,Escherichia coli [41],> 500 µM
same,MIC,Klebsiella pneumoniae [42],> 500 µM
same,MIC,Klebsiella pneumoniae [43],> 500 µM
same,MIC,Klebsiella pneumoniae [44],> 500 µM
same,MIC,Klebsiella pneumoniae [45],> 500 µM
same,MIC,Pseudomonas aeruginosa [46],> 500 µM
same,MIC,Pseudomonas aeruginosa [47],> 500 µM
same,"viability at 48 h, 30 µM",[6],137%
same,pIC50,Huh-7,< 4.52
same,pIC50,A-431,< 4.52
same,"viability at 48 h, 30 µM",[7],90%
same,pIC50,MDCK,< 4.52
same,"viability at 48 h, 30 µM",[8],84%
same,pIC50,HepG2,< 4.52
same,"viability at 48 h, 30 µM",[9],145%
same,selectivity ratio,[10],> 120
same,MIC,[11],0.25 µM
same,MIC,Mycobacterium kansasii [12],1 µM
same,MIC,Mycobacterium kansasii [13],0.5 µM
same,MIC,Mycobacterium kansasii [14],1 µM
same,MIC,Mycobacterium kansasii [15],0.25 µM
